The text below walks through data of patent US10487093B2, “Heterocyclic compounds, in particular 2-oxo-4,4,5,5,6,6,7,7-octahydrobenzoxazole derivatives, and their use as antibacterial compounds” (priority 2016, dated 2019).

Converted amounts (≈) assume the structure as drawn. Read-outs that look alike come from different tables or passages of the source.

In one assay the test system is E. coli MG1655 D87G. Type of assay: cell-based, Escherichia coli.
Assay [1] relates to Haemophilus influenzae ATCC 49247. Description: MIC, broth microdilution (CLSI) versus planktonic bacteria. Type of assay: cell-based. The settings on record: Haemophilus influenzae ATCC 49247, 16-20 h, mode of three independent experiments; for MIC: ATCC49247, read-out: MIC, Hi ATCC 49247.
In a further assay the test system is E. coli MG1655 S83L. Type of assay: cell-based, Escherichia coli.
Assay [2] concerns Streptococcus pneumoniae ATCC 49619. Put plainly: MIC, broth microdilution (CLSI) versus planktonic bacteria. Type of assay: cell-based. The settings on record: Streptococcus pneumoniae ATCC 49619, 16-20 h, mode of three independent experiments; for MIC: ATCC49619, read-out: MIC, Sp ATCC 49619. (In general: In broth dilution the organism is exposed to a series of concentrations in liquid medium.)

Assay [3] relates to human hepatic cell line (HepG2 ATCC HB-8065). Description: Human cell viability assay (CellTiter-Glo). The following applies: for IC50 (μg/mL) HepG2: HepG2 cell viability, 24 h, CellTiter-Glo; for IC50: Homo sapiens, HepG2, 24 h, read-out: IC50 (μg/mL) HepG2.
The next assay has as its system E. coli NCTC 13476. Put plainly: MIC, broth microdilution (CLSI) versus planktonic bacteria. The following applies: Escherichia coli NCTC 13476, 16-20 h, mode of three independent experiments; for MIC: NCTC13476, read-out: MIC, Ec NCTC 13476. The assay is classed as cell-based.
The subject of a further assay is E. coli MG1655. Described as above. Type of assay: cell-based, Escherichia coli. The settings on record: for MIC, Ec MG1655 WT: Escherichia coli MG1655 WT, 16-20 h, mode of three independent experiments; for MIC: Escherichia coli, MG1655, read-out: MIC, Ec MG1655 WT.
The subject of assay [4] is Escherichia coli ATCC 25922. Described as above. Type of assay: cell-based. The settings on record: Escherichia coli ATCC 25922, 16-20 h, mode of three independent experiments; for MIC: ATCC25922, read-out: MIC, Ec ATCC 25922.
For assay [5], the system named is Enterobacter cloacae NCTC 13406. Described as above. The assay is classed as cell-based. The settings on record: Enterobacter cloacae NCTC 13406, 16-20 h, mode of three independent experiments; for MIC: NCTC13406, read-out: MIC, Ecl NCTC 13406.
For assay [6], the system named is Staphylococcus aureus ATCC 29213. Described as above. The settings on record: Staphylococcus aureus ATCC 29213, 16-20 h, mode of three independent experiments; for MIC: ATCC29213, read-out: MIC, Sa ATCC 29213. The assay is classed as cell-based.
The test system of assay [7] is Acinetobacter baumannii NCTC 13420. The description is as above. Type of assay: cell-based. The following applies: Acinetobacter baumannii NCTC 13420, 16-20 h, mode of three independent experiments; for MIC: NCTC13420, read-out: MIC, Ab NCTC 13420.
Assay [8] deals with Pseudomonas aeruginosa ATCC 27853. The description is as above. The assay is classed as cell-based. The settings on record: Pseudomonas aeruginosa ATCC 27853, 16-20 h, mode of three independent experiments; for MIC: ATCC27853, read-out: MIC, Pa ATCC 27853.
The subject of another assay is E. coli ATCC BAA-2452. The description is as above. Type of assay: cell-based. The settings on record: Escherichia coli ATCC BAA-2452, 16-20 h, mode of three independent experiments; for MIC: read-out: MIC, Ec ATCC BAA 2452.
Assay [9] relates to Acinetobacter baumannii ATCC 19606. Described as above. The assay is classed as cell-based. The settings on record: Acinetobacter baumannii ATCC 19606, 16-20 h, mode of three independent experiments; for MIC: ATCC19606, read-out: MIC, Ab ATCC 19606.
[10] abbreviates: compared to the isogenic parent strain E. coli MG1655, D87G mutation on DNA gyrase subunit GyrA.
[11] abbreviates: compared to the isogenic parent strain E. coli MG1655, S83L mutation on DNA gyrase subunit GyrA.

Consider “1-[(2S)-3-{[(3aR,6R,7aR)-2-oxo-3-{3-oxo-2H,3H,4H-pyrido[3,2-b][1,4]oxazin-6-yl}-octahydro-1,3-benzoxazol-6-yl]amino}-2-hydroxypropyl]-7-fluoro-1,2-dihydroquinoxalin-2-one & 1-[(2R)-3-{[(3aR,6R,7aR)-2-oxo-3-{3-oxo-2H,3H,4H-pyrido[3,2-b][1,4]oxazin-6-yl}-octahydro-1,3-benzoxazol-6-yl]amino}-2-hydroxypropyl]-7-fluoro-1,2-dihydroquinoxalin-2-one [Compound 94]”, for which, in the assay with E. coli MG1655 D87G, the “Fold increase in MIC, E. coli MG1655 D87G” value is reported as 2 fold. In assay [1], the “MIC, Hi ATCC 49247” value is “A (an MIC (in μg/mL) of less or equal to 1 is assigned the letter A)”. Also, in the assay on E. coli MG1655 S83L, the “Fold increase in MIC, E. coli MG1655 S83L” value is on record as 1 fold. The “MIC, Sp ATCC 49619” value in assay [2] was “A (an MIC (in μg/mL) of less or equal to 1 is assigned the letter A)”. Besides, the “IC50 (μg/mL) HepG2” value in assay [3] is on record as “A (an IC50 of over 100 is assigned the letter A)”. For the same compound, the “MIC, Ec NCTC 13476” value in the assay on E. coli NCTC 13476 is given as “A (an MIC (in μg/mL) of less or equal to 1 is assigned the letter A)”. Besides, the “MIC, Ec MG1655 WT” value with E. coli MG1655 is given as “A (an MIC (in μg/mL) of less or equal to 1 is assigned the letter A)”. Moreover, the “MIC, Ec ATCC 25922” value in assay [4] is reported as “A (an MIC (in μg/mL) of less or equal to 1 is assigned the letter A)”. Besides, the “MIC, Ecl NCTC 13406” value in assay [5] is reported as “B (a MIC of from 1 to 10 is assigned the letter B)”. Besides, the “MIC, Sa ATCC 29213” value in assay [6] is given as “A (an MIC (in μg/mL) of less or equal to 1 is assigned the letter A)”. Further, the “MIC, Ab NCTC 13420” value in [7] is reported as “B (a MIC of from 1 to 10 is assigned the letter B)”. Also, in assay [8], the “MIC, Pa ATCC 27853” value is “B (a MIC of from 1 to 10 is assigned the letter B)”. The “MIC, Ec ATCC BAA 2452” value in the assay on E. coli ATCC BAA-2452 was “A (an MIC (in μg/mL) of less or equal to 1 is assigned the letter A)”. For the same compound, the “MIC, Ab ATCC 19606” value in [9] is given as “B (a MIC of from 1 to 10 is assigned the letter B)”.
As for “1-[(2S)-3-{[(3aS,6S,7aS)-2-oxo-3-{3-oxo-2H,3H,4H-pyrido[3,2-b][1,4]oxazin-6-yl}-octahydro-1,3-benzoxazol-6-yl]amino}-2-hydroxypropyl]-7-fluoro-1,2-dihydroquinoxalin-2-one & 1-[(2R)-3-{[(3aS,6S,7aS)-2-oxo-3-{3-oxo-2H,3H,4H-pyrido[3,2-b][1,4]oxazin-6-yl}-octahydro-1,3-benzoxazol-6-yl]amino}-2-hydroxypropyl]-7-fluoro-1,2-dihydroquinoxalin-2-one [Compound 95]”, in the assay on E. coli MG1655 D87G, the “Fold increase in MIC, E. coli MG1655 D87G” value turned out to be 1 fold. The “MIC, Hi ATCC 49247” value in assay [1] is recorded as “A (an MIC (in μg/mL) of less or equal to 1 is assigned the letter A)”. The “Fold increase in MIC, E. coli MG1655 S83L” value with E. coli MG1655 S83L amounted to 0.5 fold. Further, in assay [2], the “MIC, Sp ATCC 49619” value is “A (an MIC (in μg/mL) of less or equal to 1 is assigned the letter A)”. In assay [3], the “IC50 (μg/mL) HepG2” value was “A (an IC50 of over 100 is assigned the letter A)”. Besides, the “MIC, Ec NCTC 13476” value in the assay with E. coli NCTC 13476 is on record as “A (an MIC (in μg/mL) of less or equal to 1 is assigned the letter A)”. For the same compound, the “MIC, Ec MG1655 WT” value against E. coli MG1655 was “A (an MIC (in μg/mL) of less or equal to 1 is assigned the letter A)”. Further, the “MIC, Ec ATCC 25922” value in assay [4] was “A (an MIC (in μg/mL) of less or equal to 1 is assigned the letter A)”. Further, in [5], the “MIC, Ecl NCTC 13406” value is “B (a MIC of from 1 to 10 is assigned the letter B)”. The “MIC, Sa ATCC 29213” value in assay [6] was “A (an MIC (in μg/mL) of less or equal to 1 is assigned the letter A)”. The “MIC, Ab NCTC 13420” value in assay [7] is recorded as “A (an MIC (in μg/mL) of less or equal to 1 is assigned the letter A)”. The “MIC, Pa ATCC 27853” value in assay [8] is “B (a MIC of from 1 to 10 is assigned the letter B)”. Also, the “MIC, Ec ATCC BAA 2452” value against E. coli ATCC BAA-2452 is reported as “A (an MIC (in μg/mL) of less or equal to 1 is assigned the letter A)”. Further, in assay [9], the “MIC, Ab ATCC 19606” value is recorded as “B (a MIC of from 1 to 10 is assigned the letter B)”.
As to `COc1ccc2ncc(=O)n(CCN[C@H]3CCC4C(C3)OC(=O)N4c3ccc4c(n3)NC(=O)CO4)c2n1` (stereo in doubt) [Compound 45, (3aS,6S,7aS)-6-[(2-{6-methoxy-3-oxo-3H,4H-pyrido[2,3-b]pyrazin-4-yl}ethyl)amino]-3-{3-oxo-2H,3H,4H-pyrido[3,2-b][1,4]oxazin-6-yl}-octahydro-1,3-benzoxazol-2-one], the “Fold increase in MIC, E. coli MG1655 D87G” value with E. coli MG1655 D87G (setting [10]) was 1 fold. In addition, the MIC (in assay [1]; in assay [2]; in the assay with E. coli NCTC 13476; in the assay on E. coli MG1655; in assay [4]; in assay [5]) was < 1 mg/L each time. Moreover, the MIC was < 1 mg/L in [6]; < 1 mg/L in assay [7]; 1 to 10 mg/L (≈ 1.97 to 19.7 µM) in [8]; < 1 mg/L in the assay with E. coli ATCC BAA-2452; < 1 mg/L in assay [9]. In addition, the “Fold increase in MIC, E. coli MG1655 S83L” value in the assay on E. coli MG1655 S83L (setting [11]) is 2 fold. Further, the IC50 in [3] was 10 to 100 µg/mL (≈ 19.7 to 197 µM).
Regarding `COc1ccc2ccc(=O)n(CCN(CCO)[C@H]3CC[C@H]4[C@@H](C3)OC(=O)N4c3ccc4c(n3)NC(=O)CO4)c2n1` [Compound 7, 1-(2-{[(3aS,6S,7aR)-2-oxo-3-{3-oxo-2H,3H,4H-pyrido[3,2-b][1,4]oxazin-6-yl}-octahydro-1,3-benzoxazol-6-yl](2-hydroxyethyl)amino}ethyl)-7-methoxy-1,2-dihydro-1,8-naphthyridin-2-one], the “Fold increase in MIC, E. coli MG1655 D87G” value in the assay with E. coli MG1655 D87G (setting [10]) was determined as 1 fold. The MIC in [1] is 1 to 10 mg/L (≈ 1.82 to 18.2 µM); in [2], < 1 mg/L; in the assay on E. coli NCTC 13476, 1 to 10 mg/L (≈ 1.82 to 18.2 µM); in the assay with E. coli MG1655 it was < 1 mg/L; in assay [4], < 1 mg/L; in [5] it was 1 to 10 mg/L (≈ 1.82 to 18.2 µM). Moreover, the MIC was < 1 mg/L in assay [6]; < 1 mg/L in assay [7]; 1 to 10 mg/L (≈ 1.82 to 18.2 µM) in assay [8]; 1 to 10 mg/L (≈ 1.82 to 18.2 µM) in the assay on E. coli ATCC BAA-2452; 1 to 10 mg/L (≈ 1.82 to 18.2 µM) in assay [9]. Moreover, in the assay on E. coli MG1655 S83L (setting [11]), the “Fold increase in MIC, E. coli MG1655 S83L” value is on record as 1 fold. The IC50 in [3] is > 100 µg/mL.
Turning to `O=C1COc2ccc(N3C(=O)O[C@H]4C[C@@H](NCCn5c(=O)cnc6ccc(F)cc65)CC[C@@H]43)nc2N1` [Compound 84, 1-(2-{[(3aS,6S,7aS)-2-oxo-3-{3-oxo-2H,3H,4H-pyrido[3,2-b][1,4]oxazin-6-yl}-octahydro-1,3-benzoxazol-6-yl]amino}ethyl)-7-fluoro-1,2-dihydroquinoxalin-2-one], the “Fold increase in MIC, E. coli MG1655 D87G” value in the assay with E. coli MG1655 D87G (setting [10]) is reported as 1 fold. Moreover, the MIC (in assay [1]; in assay [2]; in the assay on E. coli NCTC 13476; in the assay with E. coli MG1655; in assay [4]; in [5]) was < 1 mg/L each time. Further, the MIC in [6] is < 1 mg/L; in [8] it was 1 to 10 mg/L (≈ 2.02 to 20.2 µM); with E. coli ATCC BAA-2452 it was < 1 mg/L; in assay [9], < 1 mg/L. In the assay on E. coli MG1655 S83L (setting [11]), the “Fold increase in MIC, E. coli MG1655 S83L” value was 1 fold. For the same compound, the IC50 in assay [3] was in the range of 10 to 100 µg/mL (≈ 20.2 to 202 µM).
